Measurements from PMC12274739, “Differential substrate degradation by super-degron: EGFP in wild-type mouse cells, PD-1 requires CRBN humanization” (iScience, 2025).
Read-outs that look alike come from different tables or passages of the source.

Key:
EGFP-IKZF = EGFP-IKZF (UniProt P42212+Q8C7D2, F64L/H231L/INS1V/S65T); type: cell-based, mouse; details: stable
EGFP-ZFP91 = EGFP-ZFP91 (UniProt P42212+Q8C7D2, F64L/H231L/INS1V/S65T); type: cell-based, mouse; details: for Bottom, EGFP-ZFP91 / LogDC50, EGFP-ZFP91: stable
[1] = CrbnI391V/I391V mESCs, Figure 5E

Row | Compound | Bottom, EGFP-IKZF (EGFP-IKZF; B6J-S1 mESCs, Figure 5B) | LogDC50, EGFP-IKZF (EGFP-IKZF; B6J-S1 mESCs, Figure 5B) [μM] | Bottom, EGFP-IKZF (EGFP-IKZF; [1]) | LogDC50, EGFP-IKZF (EGFP-IKZF; [1]) [μM] | Bottom, EGFP-ZFP91 (EGFP-ZFP91; B6J-S1 mESCs, Figure 5B) | LogDC50, EGFP-ZFP91 (EGFP-ZFP91; B6J-S1 mESCs, Figure 5B) [μM] | degradation of EGFP-ZFP91 (EGFP-ZFP91; CrbnI391V/I391V mESCs) | Bottom, EGFP-ZFP91 (EGFP-ZFP91; [1]) | LogDC50, EGFP-ZFP91 (EGFP-ZFP91; [1]) [μM]
1 | O=C1CC[C@H](N2Cc3c(OCc4ccc(CN5CCOCC5)cc4)cccc3C2=O)C(=O)N1 [IBR, iberdomide] | 1.103 | -1.536 | 0.2424 | -3.194 | 1.006 | -1.679 | efficiently degraded | 0.1665 | -3.079
2 | Nc1cccc2c1C(=O)N(C1CCC(=O)NC1=O)C2=O (stereo not shown) [POM, pomalidomide] |  |  | 0.1316 | -2.292 |  |  |  | 0.1492 | -2.052
